# Source: US20100184848A1, “TRANSDERMAL FORMULATIONS OF SYNTHETIC CANNABINOIDS AND NANO COLLOIDAL SILICA” (priority 2006, published 2010)
# Test system: patients in treatment for chronic neuropathic pain
# Test: 42 patient physician-sponsored open label clinical study of the compounded transdermal formulation
# Type: in vivo
# Conditions: about 1/4 gm applied to site of pain twice a day; overall trial 18 months
# Description: A number of examples of formulations of the invention were made. The formulations were used in the 42 patient open-label study of Example 2 and applied under “Cannacreme-C” 60 gm.
# A 42 patient open label clinical study was performed as a physician sponsored study of patients in treatment for chronic pain with different diagnoses.
# Patients ranged in age from 30 to 70 years old and were both male and female. […]
# Outcome measures included a patient's own subjective report, clinician's notes, as well as questionnaires such as the McGill Pain Questionnnaire (Melzack R., Pain. 1:277-299, 1975), Fibromyalgia impact Questionnaire (Burckhardt, C. S. et al., J. Rheumatol. 18:728-733, 1991), Visual Analogue Pain Rating Scale (such as reviewed in Wewers M. E. and Lowe N. K. Res. Nursing Health 13:227-236, 1990), and Likert Pain Scales (Likert, R. Arch. Psychol. 140: 55, 1932). Objective electrophysiological monitoring including Quantitative Sensory Testing, Electromyogram, and Nerve Conduction Studies, as required from patient to patient. […]
smiles,measurement,value
"CCCCCCC(C)(C)c1cc(O)c2c(c1)OC(C)(C)C1CCC(=O)CC21 (stereo not shown) [Nabilone, 3-(1,1-dimethylheptyl)-6,6a,7,8,10,10a-hexahydro-1-hydroxy-6,6-dimethyl-9H-dibenzo[b,d]pyran-9-one]","local site sensitization, irritation or Adverse Drug Reaction",no reports of local site sensitization or irritation
